# Test system: HCT-116
# Assay: Antiproliferative activity against human HCT-116 cells assessed as reduction in cell viability incubated for 72 hrs by WST-8 assay
# Type: functional, cell-based
# Conditions: HCT-116, 72 h
row,Structure (SMILES),IC50 [µM]
1,O=C(CCCCCCn1cc(C(=O)NC2CCCCCCC2)c2ccccc21)NO,> 100
2,O=C(CCCCCCn1cc(C(=O)NC23CC4CC(CC(C4)C2)C3)c2ccccc21)NO,45
3,O=C(CCCCCCn1c(C(=O)NC2C3CC4CC(C3)CC2C4)cc2ccccc21)NO (configuration not stated),13.8
4,O=C(CCCCCCn1c(C(=O)NC2C3CC4CC(C3)CC2C4)cc2ccc(Br)cc21)NO (configuration not stated),0.63

# Test system: SGC-7901
# Assay: Antiproliferative activity against human SGC-7901 cells assessed as reduction in cell viability incubated for 72 hrs by WST-8 assay
# Type: functional, cell-based
# Conditions: SGC-7901, 72 h
row,Structure (SMILES),IC50 [µM]
1,O=C(CCCCCCn1cc(C(=O)NC2CCCCCCC2)c2ccccc21)NO,67
2,O=C(CCCCCCn1cc(C(=O)NC23CC4CC(CC(C4)C2)C3)c2ccccc21)NO,14.7
3,O=C(CCCCCCn1c(C(=O)NC2C3CC4CC(C3)CC2C4)cc2ccccc21)NO (configuration not stated),6.8
4,O=C(CCCCCCn1c(C(=O)NC2C3CC4CC(C3)CC2C4)cc2ccc(Br)cc21)NO (configuration not stated),0.18

# Test system: HL-60
# Assay: Antiproliferative activity against human HL-60 cells assessed as reduction in cell viability incubated for 72 hrs by WST-8 assay
# Type: functional, cell-based
# Conditions: HL-60, 72 h
row,Structure (SMILES),IC50 [µM]
1,O=C(CCCCCCn1cc(C(=O)NC2CCCCCCC2)c2ccccc21)NO,21.5
2,O=C(CCCCCCn1cc(C(=O)NC23CC4CC(CC(C4)C2)C3)c2ccccc21)NO,1.05
3,O=C(CCCCCCn1c(C(=O)NC2C3CC4CC(C3)CC2C4)cc2ccccc21)NO (configuration not stated),5.74
4,O=C(CCCCCCn1c(C(=O)NC2C3CC4CC(C3)CC2C4)cc2ccc(Br)cc21)NO (configuration not stated),0.51

# Target: Histone deacetylase 1 (Homo sapiens, UniProt Q13547)
# Sequence (Q13547 whole entry): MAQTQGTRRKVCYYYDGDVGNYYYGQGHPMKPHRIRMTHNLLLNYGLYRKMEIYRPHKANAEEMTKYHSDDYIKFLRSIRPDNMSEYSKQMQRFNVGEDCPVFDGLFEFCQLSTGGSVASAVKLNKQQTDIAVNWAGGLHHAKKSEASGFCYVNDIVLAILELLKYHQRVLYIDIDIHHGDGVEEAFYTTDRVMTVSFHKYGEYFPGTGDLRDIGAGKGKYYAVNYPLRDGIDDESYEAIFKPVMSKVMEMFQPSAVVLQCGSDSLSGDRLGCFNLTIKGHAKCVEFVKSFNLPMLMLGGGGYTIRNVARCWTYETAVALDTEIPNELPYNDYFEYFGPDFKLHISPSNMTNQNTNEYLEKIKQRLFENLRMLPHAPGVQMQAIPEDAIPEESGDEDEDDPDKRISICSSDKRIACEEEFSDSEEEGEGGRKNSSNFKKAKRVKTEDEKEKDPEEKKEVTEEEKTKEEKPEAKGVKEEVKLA
# Assay: Inhibition of HDAC1 (unknown origin) using Boc-Lys(Ac)-AMC as substrate incubated for 60 mins by fluorescence plate reader assay
# Conditions: not given
row,Structure (SMILES),IC50 [µM]
1,O=C(CCCCCCn1cc(C(=O)NC2C3CC4CC(C3)CC2C4)c2ccccc21)NO (configuration not stated),0.00204
2,O=C(CCCCCCn1nc(C(=O)NC2C3CC4CC(C3)CC2C4)c2ccccc21)NO (configuration not stated),0.00296
3,O=C(CCCCCCn1cc(C(=O)NC2CCCCCCC2)c2ccccc21)NO,0.00131
4,O=C(CCCCCCn1cc(C(=O)NC23CC4CC(CC(C4)C2)C3)c2ccccc21)NO,0.00116
5,O=C(CCCCCCn1c(C(=O)NC2C3CC4CC(C3)CC2C4)cc2ccccc21)NO (configuration not stated),0.0021
6,O=C(CCCCCCn1c(C(=O)NC2C3CC4CC(C3)CC2C4)cc2ccc(Br)cc21)NO (configuration not stated),0.00316

# Target: T1, Protein deacetylase HDAC6 (Homo sapiens, UniProt Q9UBN7)
# T1 sequence (Q9UBN7 whole entry): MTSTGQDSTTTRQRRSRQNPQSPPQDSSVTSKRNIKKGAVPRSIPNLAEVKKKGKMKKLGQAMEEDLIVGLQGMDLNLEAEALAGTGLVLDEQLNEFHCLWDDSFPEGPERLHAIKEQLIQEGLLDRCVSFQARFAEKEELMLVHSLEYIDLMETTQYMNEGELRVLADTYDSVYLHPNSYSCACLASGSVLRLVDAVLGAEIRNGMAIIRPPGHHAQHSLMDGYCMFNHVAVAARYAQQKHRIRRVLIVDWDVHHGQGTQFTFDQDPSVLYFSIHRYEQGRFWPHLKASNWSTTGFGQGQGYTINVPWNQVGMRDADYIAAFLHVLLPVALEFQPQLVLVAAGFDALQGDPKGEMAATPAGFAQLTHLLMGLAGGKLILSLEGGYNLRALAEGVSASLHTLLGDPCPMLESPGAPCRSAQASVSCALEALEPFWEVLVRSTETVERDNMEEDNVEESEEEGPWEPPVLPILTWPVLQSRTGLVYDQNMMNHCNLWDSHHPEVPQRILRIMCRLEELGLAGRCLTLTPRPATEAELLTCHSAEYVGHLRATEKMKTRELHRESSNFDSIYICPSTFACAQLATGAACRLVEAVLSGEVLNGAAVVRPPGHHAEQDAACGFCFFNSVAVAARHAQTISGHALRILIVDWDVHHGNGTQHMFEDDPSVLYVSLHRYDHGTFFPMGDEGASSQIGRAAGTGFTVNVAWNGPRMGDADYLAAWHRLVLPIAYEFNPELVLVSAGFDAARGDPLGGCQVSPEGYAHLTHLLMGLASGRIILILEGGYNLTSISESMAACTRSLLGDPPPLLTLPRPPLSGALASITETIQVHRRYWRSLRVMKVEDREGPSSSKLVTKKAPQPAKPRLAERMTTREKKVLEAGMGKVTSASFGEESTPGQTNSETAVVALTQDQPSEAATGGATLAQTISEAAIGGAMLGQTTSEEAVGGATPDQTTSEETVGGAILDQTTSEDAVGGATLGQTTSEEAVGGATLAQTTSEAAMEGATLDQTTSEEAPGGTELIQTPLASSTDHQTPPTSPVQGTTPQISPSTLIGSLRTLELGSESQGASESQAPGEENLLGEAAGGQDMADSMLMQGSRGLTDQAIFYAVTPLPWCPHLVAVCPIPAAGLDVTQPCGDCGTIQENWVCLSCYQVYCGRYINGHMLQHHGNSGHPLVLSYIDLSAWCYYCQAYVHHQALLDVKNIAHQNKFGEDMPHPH
# Assay: Inhibition of HDAC6 (unknown origin) using Boc-Lys(Ac)-AMC as substrate incubated for 60 mins by fluorescence plate reader assay
# Conditions: not given
row,Structure (SMILES),IC50 [µM]
1,O=C(CCCCCCn1cc(C(=O)NC2C3CC4CC(C3)CC2C4)c2ccccc21)NO (configuration not stated),0.0017
2,O=C(CCCCCCn1nc(C(=O)NC2C3CC4CC(C3)CC2C4)c2ccccc21)NO (configuration not stated),0.00272
3,O=C(CCCCCCn1cc(C(=O)NC2CCCCCCC2)c2ccccc21)NO,0.0018
4,O=C(CCCCCCn1cc(C(=O)NC23CC4CC(CC(C4)C2)C3)c2ccccc21)NO,0.00192
5,O=C(CCCCCCn1c(C(=O)NC2C3CC4CC(C3)CC2C4)cc2ccccc21)NO (configuration not stated),0.00243
6,O=C(CCCCCCn1c(C(=O)NC2C3CC4CC(C3)CC2C4)cc2ccc(Br)cc21)NO (configuration not stated),0.00464

# Test system: A549
# Assay: Antiproliferative activity against human A549 cells assessed as reduction in cell viability incubated for 72 hrs by WST-8 assay
# Type: functional, cell-based
# Conditions: A549, 72 h
row,Structure (SMILES),IC50 [µM]
1,O=C(CCCCCCn1cc(C(=O)NC2CCCCCCC2)c2ccccc21)NO,> 100
2,O=C(CCCCCCn1cc(C(=O)NC23CC4CC(CC(C4)C2)C3)c2ccccc21)NO,> 100
3,O=C(CCCCCCn1c(C(=O)NC2C3CC4CC(C3)CC2C4)cc2ccccc21)NO (configuration not stated),60.9
4,O=C(CCCCCCn1c(C(=O)NC2C3CC4CC(C3)CC2C4)cc2ccc(Br)cc21)NO (configuration not stated),0.92

# Test system: MDA-MB-231
# Assay: Antiproliferative activity against human MDA-MB-231 cells assessed as reduction in cell viability incubated for 72 hrs by WST-8 assay
# Type: functional, cell-based
# Conditions: MDA-MB-231, 72 h
row,Structure (SMILES),IC50 [µM]
1,O=C(CCCCCCn1cc(C(=O)NC2CCCCCCC2)c2ccccc21)NO,> 100
2,O=C(CCCCCCn1cc(C(=O)NC23CC4CC(CC(C4)C2)C3)c2ccccc21)NO,20.8
3,O=C(CCCCCCn1c(C(=O)NC2C3CC4CC(C3)CC2C4)cc2ccccc21)NO (configuration not stated),42.6
4,O=C(CCCCCCn1c(C(=O)NC2C3CC4CC(C3)CC2C4)cc2ccc(Br)cc21)NO (configuration not stated),1.77
